≈ marks a conversion by molar mass, not a printed value. Read-outs that look alike come from different tables or passages of the source.
Key:
[1] = tested on: Acinetobacter Baumanii ATCC 17904; experiment: Determination of MIC and MBC by microdilution method, Acinetobacter; assay type: cell-based; details: for MIC / MBC: Acinetobacter baumannii; for MIC: ATCC17904, 18 h, read-out: Minimal inhibitory concentration (MIC)
Description: The compound have been tested towards 7 reference strains: […]
(§1) The determination of minimal inhibitory concentrations (MIC) has been performed using a microdution method (microplates and inoculator Dynatech) in liquid medium (MUELLER-HINTON broth) under a volume of 100 μl and for a range of concentrations from 128 to 0.06 mg/l, prepared from a mother liquor of antibiotics titrating 512 mg/l. The preparation of these mother liquors has been performed and vary depending on the molecules as a function of the solubility criterions. Inoculation has been done by adding in each will, 10 μl of a dilution in saline of 18 hours old broth in a brain-heart broth, such as each well contains about 10^6 bacterias/ml.
(§2) The Minimal Inhibitory Concentrations are read as the first concentration of antibiotic which will not give a growth macroscopically detectable after 18 hours incubating at 37°.

[2] = tested on: Staphylococcus aureus ATCC 25923; experiment: Determination of MIC and MBC by microdilution method, Staphylococcus aureus ATCC 25923; assay type: cell-based; details: for MIC / MBC: Staphylococcus aureus; for MIC: ATCC25923, 18 h, read-out: Minimal inhibitory concentration (MIC)
Description: (§3) The compound have been tested towards 7 reference strains:
Staphylococcus aureus ATCC 25923
as §1, §2

[3] = tested on: Escherichia coli ATCC 25922; experiment: Determination of MIC and MBC by microdilution method, Escherichia coli ATCC 25922; assay type: cell-based; details: E. coli ATCC 25922; for MIC / MBC: Escherichia coli, ATCC25922; for MIC: read-out: Minimal inhibitory concentration (MIC); for MBC: read-out: Minimal bactericidal concentration (MBC)
Description: as §3
Escherichia coli ATCC 25922
as §1, §2

[4] = tested on: Pseudomonas aeruginosa ATCC 22853; experiment: Determination of MIC and MBC by microdilution method, Pseudomonas aeruginosa ATCC 22853; assay type: cell-based; details: for MIC / MBC: Pseudomonas aeruginosa; for MIC: ATCC22853, 18 h, read-out: Minimal inhibitory concentration (MIC)
Description: as §3
Pseudomonas aeruginosa ATCC 22853
(§4) The preparation of these mother liquors has been performed and vary depending on the molecules as a function of the solubility criterions. Inoculation has been done by adding in each will, 10 μl of a dilution in saline of 18 hours old broth in a brain-heart broth, such as each well contains about 10^6 bacterias/ml. […]

[5] = tested on: S. aureus CB-951; experiment: Determination of MIC and MBC by microdilution method, S. aureus CB-951; assay type: cell-based, Staphylococcus aureus; details: for MIC / MBC: Staphylococcus aureus; for MIC: CB951, 18 h, read-out: Minimal inhibitory concentration (MIC)
Description: as §3
Staphylococcus aureus CB 951
as §1, §2

[6] = tested on: Streptococcus faecalis ATCC 8043; experiment: Determination of MIC and MBC by microdilution method, Streptococcus faecalis ATCC 8043; assay type: cell-based; details: for MBC / MIC: Enterococcus faecalis; for MIC: read-out: Minimal inhibitory concentration (MIC)
Description: as §3
Streptococcus faecalis ATCC 8043
as §4

[7] = Acinetobacter Baumanii ATCC 17904, Mueller-Hinton broth, 18 hours at 37°
[8] = ATCC17904, Acinetobacter Baumanii ATCC 17904, read-out: Minimal bactericidal concentration (MBC)
[9] = S. aureus ATCC 25923, Mueller-Hinton broth, 18 hours at 37°
[10] = ATCC25923, S. aureus ATCC 25923, read-out: Minimal bactericidal concentration (MBC)
[11] = Mueller-Hinton broth, 18 hours at 37°
[12] = P. aeruginosa ATCC 22853, Mueller-Hinton broth, 18 hours at 37°
[13] = ATCC22853, P. aeruginosa ATCC 22853, read-out: Minimal bactericidal concentration (MBC)
[14] = S. aureus CB-951, methicillino, erythromycinolincomycino, pefloxacino resistant, Mueller-Hinton broth, 18 hours at 37°
[15] = CB951, S. aureus CB-951, methicillino, erythromycinolincomycino, pefloxacino resistant, read-out: Minimal bactericidal concentration (MBC)
[16] = ATCC8043, S. faecalis ATCC 8043, read-out: Minimal bactericidal concentration (MBC)
[17] = ATCC8043, S. faecalis ATCC 8043, Mueller-Hinton broth, 18 hours at 37°

Row | Compound | MIC [1, 7] | MIC [2, 9] | MIC [3, 11] | MIC [4, 12] | MIC [5, 14] | MIC [6, 17] | MBC [1, 8] | MBC [2, 10] | MBC [3] | MBC [4, 13] | MBC [5, 15] | MBC [6, 16] | further results
1 | CCn1cc(C(=O)O)c(=O)c2cc(F)c(N3CCC(CNC(=O)Nc4ccc([N+](=O)[O-])cc4)CC3)c(F)c21 [Compound 17, 7-[4-(4-nitrophenyl)aminocarbonylaminomethylpiperidinyl-1] 6,8-difluoro 1-ethyl] |  | 0.03 µg/mL (≈ 0.0567 µM) | 16 µg/mL (≈ 30.2 µM) | > 16 µg/mL | 1 µg/mL (≈ 1.89 µM) | 4 µg/mL (≈ 7.55 µM) |  | 0.03 µg/mL (≈ 0.0567 µM) | > 16 µg/mL | > 16 µg/mL | 1 µg/mL (≈ 1.89 µM) | 8 µg/mL (≈ 15.1 µM) | 
2 | CCn1cc(C(=O)O)c(=O)c2cc(F)c(N3CCC(CN)CC3)c(F)c21 [Compound b, 7-(4-aminomethylpiperidinyl-1) 6,8-difluoro 1-ethyl 4-oxo 1,4-dihydroquinoleinyl-3 carboxylic acid] |  |  |  |  |  |  |  |  |  |  |  |  | Minimal bactericidal concentration (MBC) ([1]; Acinetobacter Baumanii ATCC 17904): 0,5 μg/ml; Minimal inhibitory concentration (MIC) [1, 7]: 0,5 μg/ml; Minimal bactericidal concentration (MBC) ([2]; S. aureus ATCC 25923): 0,5 μg/ml; Minimal inhibitory concentration (MIC) [2, 9]: 0,5 μg/ml; Minimal bactericidal concentration (MBC) [3]: 0,5 μg/ml; Minimal inhibitory concentration (MIC) [3, 11]: 0,5 μg/ml; Minimal bactericidal concentration (MBC) ([4]; P. aeruginosa ATCC 22853): 8 µg/mL (≈ 21.9 µM); Minimal inhibitory concentration (MIC) [4, 12]: 4 µg/mL (≈ 10.9 µM); Minimal bactericidal concentration (MBC) ([5]; S. aureus CB-951, methicillino, erythromycinolincomycino, pefloxacino resistant): 4 µg/mL (≈ 10.9 µM); Minimal inhibitory concentration (MIC) [5, 14]: 4 µg/mL (≈ 10.9 µM); Minimal bactericidal concentration (MBC) ([6]; S. faecalis ATCC 8043): 1 µg/mL (≈ 2.74 µM); Minimal inhibitory concentration (MIC) ([6]; S. faecalis ATCC 8043, Mueller-Hinton broth, 18 hours at 37°): 0,5 μg/ml
3 | O=C(O)c1cn(C2CC2)c2cc(N3CCNCC3)c(F)cc2c1=O [Ciprofloxacine, reference compound] |  |  |  |  |  |  |  |  |  |  |  |  | MIC [1]: 0.06 µg/mL (≈ 0.181 µM); MBC ([1]; ATCC17904, read-out: Minimal bactericidal concentration (MBC)): 0.06 µg/mL (≈ 0.181 µM); MIC [2]: 0.25 µg/mL (≈ 0.754 µM); MBC ([2]; ATCC25923, read-out: Minimal bactericidal concentration (MBC)): 0.25 µg/mL (≈ 0.754 µM); MIC [4]: 0.12 µg/mL (≈ 0.362 µM); MBC ([4]; ATCC22853, read-out: Minimal bactericidal concentration (MBC)): 0.25 µg/mL (≈ 0.754 µM); MIC [5]: 4 µg/mL (≈ 12.1 µM); MBC ([5]; CB951, read-out: Minimal bactericidal concentration (MBC)): 4 µg/mL (≈ 12.1 µM); MIC ([6]; ATCC8043, 18 h): 0.25 µg/mL (≈ 0.754 µM); MBC ([6]; ATCC8043, read-out: Minimal bactericidal concentration (MBC)): 0.25 µg/mL (≈ 0.754 µM)

Continued, in another order:

Row | MIC [1, 7] | MIC [2, 9] | MIC [3, 11] | MIC [4, 12] | MIC [5, 14] | MIC [6, 17] | Compound | MBC [1, 8] | MBC [2, 10] | MBC [3] | MBC [4, 13] | MBC [5, 15] | MBC [6, 16] | further results
4 | 0.06 µg/mL (≈ 0.117 µM) | 0.06 µg/mL (≈ 0.117 µM) | 16 µg/mL (≈ 31.1 µM) | > 16 µg/mL | 0.5 µg/mL (≈ 0.972 µM) | 8 µg/mL (≈ 15.5 µM) | CCn1cc(C(=O)O)c(=O)c2cc(F)c(N3CCC(CNC(=O)Nc4ccc(OC)cc4)CC3)c(F)c21 [Compound 16, 7-[4-(4-methoxyphenyl)aminocarbonylaminomethylpiperidinyl-1] 6,8-difluoro1-ethyl] | 0.03 µg/mL (≈ 0.0583 µM) | 0.06 µg/mL (≈ 0.117 µM) | 16 µg/mL (≈ 31.1 µM) | > 16 µg/mL | 1 µg/mL (≈ 1.94 µM) | 16 µg/mL (≈ 31.1 µM) | 
5 | 12 µg/mL (≈ 26.9 µM) | 12 µg/mL (≈ 26.9 µM) | > 12 µg/mL | > 12 µg/mL | > 12 µg/mL | > 12 µg/mL | NCC1CCN(c2c(F)cc3c(=O)c(C(=O)O)cn(Cc4ccc(F)cc4)c3c2F)CC1 [Compound 4, 7-(4-aminomethylpiperidinyl-1) 6,8-difluoro 1-(4-fluorobenzyl) 4-oxo 1,4-dihydroquinoleinyl-3 carboxylic acid] | > 12 µg/mL | 12 µg/mL (≈ 26.9 µM) | > 12 µg/mL | > 12 µg/mL | 12 µg/mL (≈ 26.9 µM) | 12 µg/mL (≈ 26.9 µM) | 
6 | 0.06 µg/mL (≈ 0.18 µM) | 0.12 µg/mL (≈ 0.36 µM) | 0.06 µg/mL (≈ 0.18 µM) | 2 µg/mL (≈ 6 µM) | 4 µg/mL (≈ 12 µM) | 1 µg/mL (≈ 3 µM) | CCn1cc(C(=O)O)c(=O)c2cc(F)c(N3CCN(C)CC3)cc21 [Pefloxacine, reference compound] | 0.06 µg/mL (≈ 0.18 µM) | 0.25 µg/mL (≈ 0.75 µM) | 0.06 µg/mL (≈ 0.18 µM) | 2 µg/mL (≈ 6 µM) | 4 µg/mL (≈ 12 µM) | 1 µg/mL (≈ 3 µM) | 

— US5420140A, “Difluorinated quinolones useful for treating bacterial infections” (Bouchara S.A., priority 1991, dated 1995)
